Blank lines part the entries; values can stand above or below the compound they belong to.
How the values were obtained:
Format in all cases: biochemical
[1] = test system: Catalase; assay: Catalase based test, liquid system, wound fluid; details: room temperature, 30 minutes
Method: For this diagnostic tool: Purpald as substrate for Catalase was used. Purpalt is dissolved in water (50-100 mM). 200 µl of substrate solution are pipetted into a microtiterplate.
(§1) This mixture is incubated at room temperature for 30 minutes.

[2] = test system: Catalase; assay: Catalase based test, liquid system, sputum; details: room temperature, 30 minutes
Method: For this diagnostic tool: Purpald as substrate for catalase was used. Purpalt is dissolved in water (50-100 mM?). 200 µl of substrate solution are pipetted into a microtiterplate.
as §1

[3] = target: T1, Myeloperoxidase (Homo sapiens, UniProt P05164); assay: Myeloperoxidase based test, cellulose based system, sputum; details: filter paper discs, H202, 5 minutes
T1 sequence (P05164 49-745): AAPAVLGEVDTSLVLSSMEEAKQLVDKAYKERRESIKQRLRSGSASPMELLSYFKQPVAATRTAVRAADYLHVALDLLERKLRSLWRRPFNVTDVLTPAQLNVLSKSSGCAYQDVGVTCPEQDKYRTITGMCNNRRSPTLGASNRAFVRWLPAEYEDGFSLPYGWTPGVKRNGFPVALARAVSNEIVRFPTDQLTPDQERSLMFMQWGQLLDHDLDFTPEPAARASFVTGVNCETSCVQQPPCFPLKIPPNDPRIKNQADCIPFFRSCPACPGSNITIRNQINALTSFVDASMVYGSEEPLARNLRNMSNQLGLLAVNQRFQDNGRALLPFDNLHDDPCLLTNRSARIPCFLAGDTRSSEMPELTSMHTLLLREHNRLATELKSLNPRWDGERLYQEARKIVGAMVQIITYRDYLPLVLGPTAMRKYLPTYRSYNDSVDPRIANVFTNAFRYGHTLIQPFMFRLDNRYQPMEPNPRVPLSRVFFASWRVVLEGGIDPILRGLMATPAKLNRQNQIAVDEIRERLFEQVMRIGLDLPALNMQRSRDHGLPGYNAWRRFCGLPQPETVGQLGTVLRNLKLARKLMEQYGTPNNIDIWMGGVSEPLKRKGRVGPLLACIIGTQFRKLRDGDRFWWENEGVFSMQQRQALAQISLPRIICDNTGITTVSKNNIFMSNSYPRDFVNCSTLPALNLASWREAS
Method: 1.5 µl of H202 (50 mM) and 1.5 µl of the substrates (109 mM ABTS, 454 mM TMB, 230 mM Fast Blue, x mM Guaiacol, x mM 4-Amino-3-methoxy benzoic acid) were incubated on small Whatmann Filterpaper discs.

[4] = target: T2, MPO (Homo sapiens, UniProt P05164); assay: Colorimetric enzyme assay for detection of myeloperoxidase activity; details: 1 mg/mL, pH 6.4, 5 mM H2O2
T2 sequence (P05164 49-745): T1 sequence (P05164 49-745)

[5] = test system: Phospholipase C; assay: Phospholipase C based test, liquid system, wound fluid; details: room temperature, 30 minutes, visual inspection
Method: For this diagnostic tool, p-Nitrophenylphosphorylcholine as substrate for Phospholipase C was used. p-Mtrophenylphosphorylcholine is dissolved in water (50-100 mM). A 250 mM: Tris/HCi buffer with 70% Sorbitol pH 7.2 was used as assay buffer. 230 µl of the buffer and 100 µl of the substrate are pipetted into a microtiterplate.
as §1

[6] = target: T1, Myeloperoxidase; assay: Myeloperoxidase based test, liquid system, sputum; details: succinate buffer pH 5.4, H202, 5 minutes
[7] = test system: Phospholipase A2; assay: Phospholipase A2 based test, liquid system, wound fluid; details: room temperature, 30 minutes
Method: Preparation of diagnostic system. For this diagnostic tool, 4-Nitro-3- octanoylbenzoic acid as Phospholipase A2 - substrate was used. 4-Nitro-3-octanoylbenzoic acid (1.7 mM) is dissolved in assay buffer containing 50 mM Tris/HCl buffer pH 7.2, 150 mM KCL and 10 mM CaC12. 190 µl of the buffer are pipetted into a microtiterplate.
as §1

[8] = test system: Phospholipase A2; assay: Phospholipase A2 based test, liquid system, sputum; details: room temperature, 30 minutes
Method: For this diagnostic tool, 4-Nitro-3-octanoylbenzoic acid as Phospholipase A2 - substrate was used. 4-Nitro-3-octanoylbenzoic acid (1.7 mM) is dissolved in assay buffer containing 50 mM Tris/HCl buffer pH 7.2, 150 mM KCL and 10 mM CaC12. 190 µl of the buffer are pipetted into a microtiterplate.
as §1

[9] = infected wound fluid samples A, B, C
[10] = non infected wound fluid samples D, E, F
[11] = infected sputum samples A, B, C
[12] = non infected sputum samples D, E, F

Compound: NNc1n[nH]c(=S)n1N [Purpald]
Test response [1, 9]: yellow
Test response [1, 10]: No colour change
Test response [2, 11]: yellow
Test response ([2]; non-infected sputum samples D, E, F): No colour change

Test response ([3]; infected sputum samples A, B): brown
Test response ([3]; non infected sputum samples C, D): No colour change
Compound: COc1cc(C(=O)O)ccc1N [Compound 4A3Mba, 4-Amino-3-methoxy benzoic acid]

colour of solution upon MPO oxidation [4]: turned brownish
Compound: Nc1ccc(C(=O)O)cc1N [3,4-Diamino benzoic acid]

Compound: C[N+](C)(C)CCOP(=O)([O-])Oc1ccc([N+](=O)[O-])cc1 [p-Nitrophenylphosphorylcholine]
Test response [5, 9]: yellow
Test response ([5]; non-infected wound fluid samples D, E, F): No colour change

Compound: Cc1cc(-c2cc(C)c(N)c(C)c2)cc(C)c1N [TMB, 3, 3′, 5, 5′ -Tetramethylbenzidine]
Test response [6, 11]: blue
Test response [6, 12]: No colour change

Compound: CCCCCCCC(=O)c1cc(C(=O)O)ccc1[N+](=O)[O-] [4-Nitro-3-octanoylbenzoic acid]
Test response [7, 9]: yellow
Test response [7, 10]: No colour change
Test response [8, 11]: yellow
Test response [8, 12]: No colour change

From patent publication US20230213525A1, “DETECTING MICROBIAL INFECTION IN WOUNDS” (QUALIZYME DIAGNOSTICS GMBH & CO KG, priority 2016, published 2023)
